What is called IC50 is the concentration that gives 50% inhibition.

The values that follow come from PMC4936272 (Bioorganic & medicinal chemistry letters, 2016).

One test concerns Male ICR mice. Description: Mouse tail flick test. The test is classed as in vivo. To be noted: for Analgesia in tail flick test: 50 mg/kg intraperitoneal (IP); for Analgesia in tail flick test, dose-response: lower doses than 50 mg/kg IP. On the technique in general: Thermal pain tests record how soon the animal reacts.
A further test has as its target T1, human FAAH (Homo sapiens, UniProt O00519).
T1 sequence (O00519 34-579): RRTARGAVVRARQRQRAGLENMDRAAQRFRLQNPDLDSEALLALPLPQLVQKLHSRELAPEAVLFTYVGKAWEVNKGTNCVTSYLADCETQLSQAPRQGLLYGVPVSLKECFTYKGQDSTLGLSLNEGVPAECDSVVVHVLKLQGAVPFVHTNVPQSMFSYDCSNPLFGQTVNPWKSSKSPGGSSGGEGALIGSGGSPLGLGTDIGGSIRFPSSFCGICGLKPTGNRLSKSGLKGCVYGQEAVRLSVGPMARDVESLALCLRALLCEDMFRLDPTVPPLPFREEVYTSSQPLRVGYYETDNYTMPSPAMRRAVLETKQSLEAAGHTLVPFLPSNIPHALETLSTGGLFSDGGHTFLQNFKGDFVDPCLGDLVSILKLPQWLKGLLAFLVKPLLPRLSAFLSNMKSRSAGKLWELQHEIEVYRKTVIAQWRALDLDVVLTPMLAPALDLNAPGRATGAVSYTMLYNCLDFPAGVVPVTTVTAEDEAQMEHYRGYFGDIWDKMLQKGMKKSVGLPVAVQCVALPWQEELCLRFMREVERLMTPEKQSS
As to the kind of experiment: Reversibility of FAAH inactivation by exhaustive dialysis. To be noted: 144 hrs dialysis at 4°C after complete inactivation.

In a further test the test system is FAAH. To be noted: cited from earlier work.

Regarding `COc1ccc(OC(=O)N2CCC(c3nc(C4=NOC(c5ccccc5)C4)cs3)CC2)cc1` (stereo not shown) [Compound 1p], the “Analgesia in tail flick test” value in the test on Male ICR mice is reported as “did not produce analgesia”.
As to `O=C(Oc1ccccc1)N1CCC(c2nc(C3=NOC(c4ccccc4)C3)cs2)CC1` (stereo not shown) [Compound 1a, phenyl 4-[4-(4,5-dihydro-5-phenyl-3-isoxazolyl)-2-thiazolyl]-1-piperidinecarboxylate], in the test on Male ICR mice, the “Analgesia in tail flick test” value was “significant analgesic effects” and the “Analgesia in tail flick test, dose-response” value (shortened to “Analgesia … dose-response”) is given as “failed to produce significant analgesia”.
`O=C(Nc1ccccc1)N1CCN(c2nc(-c3ccccc3)ns2)CC1` [JNJ-1661010]: at human FAAH, the “Recovery of FAAH activity after dialysis” value is on record as around 30%.
Turning to `N#Cc1ccc(OC(=O)N2CCC(c3nc(C4=NOC(c5ccccc5)C4)cs3)CC2)cc1` (stereo not shown) [Compound 1b], in the test with Male ICR mice, the “Analgesia in tail flick test” value is “significant analgesic effects” and the “Analgesia … dose-response” value is given as “clear dose-dependent effects down to 5 mg/kg”.
Turning to `O=C(Nc1cccnc1)N1CCC(Cc2cccc(Oc3ccc(C(F)(F)F)cn3)c2)CC1` [PF-3845], the “kinact reported for other chemotypes” value with FAAH is 0.0033 s⁻¹.
In the case of `O=C(Oc1cccnc1)N1CCC(c2nc(C3=NOC(c4ccccc4)C3)cs2)CC1` (stereo not shown) [Compound 1o], the “Analgesia in tail flick test” value with Male ICR mice is “did not produce analgesia”.
Turning to `O=C(Nc1cccnn1)N1CCC(c2nc(C3=NOC(c4ccccc4)C3)cs2)CC1` (stereo not shown) [Compound 2f], in the test on Male ICR mice, the “Analgesia in tail flick test” value is listed as “significant analgesic effects” and the “Analgesia … dose-response” value is “failed to produce significant analgesia”.
For the molecule `NC(=O)c1cccc(-c2cccc(OC(=O)NC3CCCCC3)c2)c1` [URB597], the IC50 in the test with FAAH (read-out: IC50 reported in the literature) is […].
`O=C(Nc1cnccn1)N1CCC(c2nc(C3=NOC(c4ccccc4)C3)cs2)CC1` (stereo not shown) [Compound 2e]: in the test on Male ICR mice, the “Analgesia in tail flick test” value is “significant analgesic effects” and the “Analgesia … dose-response” value is on record as “failed to produce significant analgesia”.
